# Measured values published in ChEMBL document CHEMBL4651402, “Screening of ~5500 FDA-approved drugs and clinical candidates for anti-SARS-CoV-2 activity” (2021).
# System: SARS-CoV-2
# Assay: microbe, parasite or virus in culture
# Conditions: Severe acute respiratory syndrome coronavirus 2, Vero C1008, 48 h
Compound,IC50,IC50 (read-out: pIC50 (converted))
COc1cc([C@@H]2c3cc4c(cc3[C@@H](O[C@@H]3O[C@@H]5CO[C@@H](C)O[C@H]5[C@H](O)[C@H]3O)[C@H]3COC(=O)[C@H]23)OCO4)cc(OC)c1O [ETOPOSIDE],> 20 µM,> 20 µM
O=C(c1ccc2nonc2c1)N1CCOCC1 [CX-717],> 20 µM,> 20 µM
COC(=O)c1c(C)cc(OC(=O)c2c(C)cc(O)c(C=O)c2O)c(C)c1O [ATRANORIN],> 20 µM,> 20 µM
O=C(CN1CCN(Cc2ccc3c(c2)OCO3)CC1)N1c2ccccc2Sc2ccccc21 [FENOVERINE],> 20 µM,> 20 µM
CCN(CC)CC(OC(=O)c1ccccc1)c1ccccc1 (centres undefined) [ELUCAINE],> 20 µM,> 20 µM
CC1(C)CC23C(=O)CCC(O)C2(C)CCC13 (centres undefined) [3-NOR-3-OXOPANASINSAN-6-OL],> 20 µM,> 20 µM
CN1C(=O)N(c2cc(Cl)cc(Cl)c2)C(=O)[C@@]1(C)Cc1ccc(Br)cc1,> 20 µM,> 20 µM
COc1ccc2c(c1)Sc1ccc(C(C)C(=O)O)cc1N2C (centres undefined) [PROTIZINIC ACID],> 20 µM,> 20 µM
CN(C)CCOC(c1ccc(Cl)cc1)c1ccccn1 (centres undefined) [CARBINOXAMINE],> 20 µM,> 20 µM
CN(C)CCn1nnnc1SCC1=C(C(=O)O)N2C(=O)[C@@H](NC(=O)Cc3csc(N)n3)[C@H]2SC1 [CEFOTIAM],> 20 µM,> 20 µM
CNC[C@H](O)[C@@H](O)[C@H](O)[C@H](O)CO [MEGLUMINE],> 20 µM,> 20 µM
O=C(NCCN1CCN(c2cccc3c2OC[C@@H](CO)O3)CC1)c1ccc(F)cc1,> 20 µM,> 20 µM
CNC[C@H](O)c1cccc(O)c1 [PHENYLEPHRINE],> 20 µM,> 20 µM
Oc1ccc(C2CNCCc3c2cc(O)c(O)c3Cl)cc1 (centres undefined) [FENOLDOPAM],> 20 µM,> 20 µM
CCC(=O)C(CCN(C)C)(c1ccccc1)c1ccccc1 [NORMETHADONE],> 20 µM,> 20 µM
Cn1nc(-c2cccc(F)c2)n(C)c1=S [SURITOZOLE],> 20 µM,> 20 µM
COc1ccc(S(=O)(=O)N2c3ccc(Cl)cc3[C@](O)(c3ccccc3Cl)[C@@H]2C(=O)N2CCC[C@H]2C(N)=O)cc1OC [RELCOVAPTAN],> 20 µM,> 20 µM
O=C(O)c1ccccc1S [THIOSALICYLIC ACID],> 20 µM,> 20 µM
O=C1[C@@H]2[C@H]3CC[C@H](C3)[C@@H]2C(=O)N1CCCCN1CCN(c2ncccn2)CC1 [TANDOSPIRONE],> 20 µM,> 20 µM
C[C@H](CCC(=O)O)[C@H]1CC[C@H]2[C@@H]3[C@@H](O)C[C@@H]4C[C@H](O)CC[C@]4(C)[C@H]3CC[C@]12C [URSODIOL],> 20 µM,> 20 µM
CCCCC1C(=O)N(c2ccccc2)N(c2ccccc2)C1=O [PHENYLBUTAZONE],> 20 µM,> 20 µM
CCOC(=O)OC(C)OC1=C(C(=O)Nc2ccccn2)N(C)S(=O)(=O)c2ccccc21 (centres undefined) [AMPIROXICAM],> 20 µM,> 20 µM
CN1CC[C@@H](c2c(O)cc(O)c3c(=O)cc(-c4ccccc4Cl)oc23)[C@@H]1CO,> 20 µM,> 20 µM
CN(C)c1ccc(O)c2c1C[C@H]1C[C@H]3[C@H](N(C)C)C(O)=C(C(N)=O)C(=O)[C@@]3(O)C(O)=C1C2=O [MINOCYCLINE],> 20 µM,> 20 µM

Compound,IC50,IC50 (read-out: pIC50 (converted))
CC(C)Nc1ncccn1 [ISAXONINE],> 20 µM,> 20 µM
CC(CC1c2ccccc2CCc2ccccc21)CN(C)C (centres undefined) [BUTRIPTYLINE],> 20 µM,> 20 µM
Cn1cnc2c(F)c(Nc3ccc(Br)cc3Cl)c(C(=O)NOCCO)cc21 [SELUMETINIB],> 20 µM,> 20 µM
CN(C)c1nc(N(C)C)nc(N(C)C)n1 [ALTRETAMINE],> 20 µM,> 20 µM
CCCCN1C[C@@H](O)[C@@H](O)[C@H](O)[C@H]1CO,> 20 µM,> 20 µM
OCc1cccnc1 [NICOTINYL ALCOHOL],> 20 µM,> 20 µM
COc1ccc2c(c1)C(C(=O)N(Cc1ccc(N(C)C)cc1)c1ccc(C(C)C)cc1)CCC2 (centres undefined),> 20 µM,> 20 µM
CN1CCN(C2=Nc3ccccc3Sc3ccc(Cl)cc32)CC1 [CLOTHIAPINE],> 20 µM,> 20 µM
Nc1ncnc2c1nc(Cl)n2C1O[C@H](CO)[C@@H](O)[C@H]1O (some centres undefined),> 20 µM,> 20 µM
CC(Cc1ccc(C(C)(C)C)cc1)CN1CCCCC1 (centres undefined) [FENPROPIDIN],> 20 µM,> 20 µM
Clc1cccc(C(c2ccc3[nH]cnc3c2)n2ccnc2)c1 (centres undefined) [LIAROZOLE],> 20 µM,> 20 µM
CN(C)C/C=C/C(=O)Nc1cc2c(Nc3ccc(F)c(Cl)c3)ncnc2cc1O[C@H]1CCOC1 [AFATINIB],> 20 µM,> 20 µM
CC(C)N(CCC(CCN1CCCCC1)(C(N)=O)c1ccccc1Cl)C(C)C (centres undefined) [DISOBUTAMIDE],> 20 µM,> 20 µM
COc1ccc([C@H](Cc2ccncc2)c2ccccc2)cc1OC1CCCC1 [CDP840],> 20 µM,> 20 µM
CCCCCCCCCCNCCN[C@@]1(C)C[C@H](O[C@H]2[C@H](Oc3c4cc5cc3Oc3ccc(cc3Cl)[C@H](O)[C@@H](NC(=O)[C@@H](CC(C)C)NC)C(=O)N[C@@H](CC(N)=O)C(=O)N[C@H]5C(=O)N[C@@H]3C(=O)N[C@H](C(=O)N[C@H](C(=O)O)c5cc(O)c(CNCP(=O)(O)O)c(O)c5-c5cc3ccc5O)[C@@H](O)c3ccc(c(Cl)c3)O4)O[C@H](CO)[C@@H](O)[C@@H]2O)O[C@@H](C)[C@H]1O,> 20 µM,> 20 µM
Nc1nncs1,> 20 µM,> 20 µM
O=C(O)CNC(=O)C(CS)Cc1ccccc1 (centres undefined) [THIORPHAN],> 20 µM,> 20 µM
CC(=O)OCC1OC(n2ccc(=O)[nH]c2=O)C(OC(C)=O)C1OC(C)=O (centres undefined),> 20 µM,> 20 µM
C[C@H]1[C@H]2C(=O)c3ccc(O)cc3[C@]1(C)CCN2CC1CC1 [KETAZOCINE],> 20 µM,> 20 µM
Cc1onc(-c2c(F)cccc2Cl)c1C(=O)N[C@@H]1C(=O)N2[C@@H]1SC(C)(C)[C@@H]2C(=O)O [FLOXACILLIN],> 20 µM,> 20 µM
CN1CC[C@]23c4c5ccc(O)c4O[C@H]2C(=O)C=C[C@@]3(O)C1C5,> 20 µM,> 20 µM
CCCCCCCCCCCCCCC1(C(=O)OC)CO1 (centres undefined) [METHYL PALMOXIRATE],> 20 µM,> 20 µM
C#C[C@]1(CO)O[C@@H](n2cnc3c(N)nc(F)nc32)C[C@@H]1O,> 20 µM,> 20 µM
CC(=O)NC(CCC(=O)O)C(=O)O (centres undefined) [ACEGLUMATE],> 20 µM,> 20 µM

Compound,IC50,IC50 (read-out: pIC50 (converted))
Cc1cc(/C=C/c2ccc3cc(N(C)C)ccc3[n+]2C)c(C)n1-c1ccccc1,> 20 µM,> 20 µM
COc1ccccc1OC(=O)C(C)c1ccc(CC(C)C)cc1 (centres undefined),> 20 µM,> 20 µM
O=C(NCC1CCCCN1)c1cc(OCC(F)(F)F)ccc1OCC(F)(F)F (centres undefined) [FLECAINIDE],> 20 µM,> 20 µM
Nc1[nH]cnc2ncnc1-2 [ADENINE],> 20 µM,> 20 µM
Nc1nc(=O)n([C@@H]2O[C@H](CO)[C@@H](O)[C@H]2F)cc1I,> 20 µM,> 20 µM
CCOC(=O)/C=C(C)/C=C/C=C(C)/C=C/c1c(C)cc(OC)c(C)c1C [ETRETINATE],> 20 µM,> 20 µM
CC1(C)CC(=O)c2c(C(F)(F)F)nn(-c3ccc(C(N)=O)c(N[C@H]4CC[C@H](OC(=O)CN)CC4)c3)c2C1 [SNX 5422],> 20 µM,> 20 µM
O=C1Nc2ccccc2/C1=C1/Nc2ccccc2C1=O [INDIRUBIN],> 20 µM,> 20 µM
CN1C2=CC(=O)/C(=N\NC(N)=O)C=C2CC1S(=O)(=O)O (centres undefined) [CARBAZOCHROME SULFONIC ACID],> 20 µM,> 20 µM
CCC(=O)O[C@]1(C(=O)SCF)[C@H](C)C[C@H]2[C@@H]3C[C@H](F)C4=CC(=O)C=C[C@]4(C)[C@@]3(F)[C@@H](O)C[C@@]21C [FLUTICASONE PROPIONATE],> 20 µM,> 20 µM
Cn1ncnc1[C@H]1c2n[nH]c(=O)c3cc(F)cc(c23)N[C@@H]1c1ccc(F)cc1 [TALAZOPARIB],> 20 µM,> 20 µM
C=C1C[C@]23C[C@@]1(O)CC[C@H]2[C@@]12C=C[C@H](O)[C@](C)(C(=O)O1)[C@H]2[C@@H]3C(=O)O [GIBBERELLIN GA3],> 20 µM,> 20 µM
CC[C@H](c1ccc(O)cc1)[C@@H](CC)c1ccc(O)cc1 [HEXESTROL],> 20 µM,> 20 µM
NCC1CCC(C(=O)O)CC1 (centres undefined),> 20 µM,> 20 µM
Cn1cc(-c2cc3c(N4CCN(c5ncc([C@@](C)(N)c6ccc(F)cc6)cn5)CC4)ncnn3c2)cn1 [AVAPRITINIB],> 20 µM,> 20 µM
CC[N+](C)(CC)CCOC(=O)C(O)(c1ccccc1)c1ccccc1 [METHYLBENACTYZIUM],> 20 µM,> 20 µM
CCOP(=O)(Cc1ccc(-c2nc3ccccc3s2)cc1)OCC [FOSTEDIL],> 20 µM,> 20 µM
CS(=O)(=O)OC[C@H](O)[C@@H](O)COS(C)(=O)=O [TREOSULFAN],> 20 µM,> 20 µM
COc1ccc2[nH]cc(CCN(C)C)c2c1 [MEBUFOTENIN],> 20 µM,> 20 µM
CC(C(=O)O)c1cccc(Oc2ccccc2)c1 (centres undefined) [FENOPROFEN],> 20 µM,> 20 µM
COc1ccc(CN2CCNCC2)c(OC)c1OC [TRIMETAZIDINE],> 20 µM,> 20 µM
COc1ccc2c(c1)[C@H]1C[C@@]1(C(=O)N1C3CCC1CN(C)C3)Cn1c-2c(C2CCCCC2)c2ccc(C(=O)NS(=O)(=O)N(C)C)cc21,> 20 µM,> 20 µM
O=C(CCNNC(=O)c1ccncc1)NCc1ccccc1 [NIALAMIDE],> 20 µM,> 20 µM
CC1CC(OC(=O)C2CCC(=O)N2)CC(C)(C)C1 (centres undefined),> 20 µM,> 20 µM
